# Positions of bridges follow the written chain, without caps; N, C: chain ends. Non-standard residues stand in square brackets, D forms with d. Residues, ends and D or L forms follow the SMILES beside them. Phe(4-NO2) = N[C@@H](Cc1ccc([N+](=O)[O-])cc1)C(=O)O; Phe(F5) = N[C@@H](Cc1c(F)c(F)c(F)c(F)c1F)C(=O)O; dBip = N[C@H](Cc1ccc(-c2ccccc2)cc1)C(=O)O; Phe(4-Cl) = N[C@@H](Cc1ccc(Cl)cc1)C(=O)O; dPhe(4-Cl) = N[C@H](Cc1ccc(Cl)cc1)C(=O)O; Phe(3-F) = N[C@@H](Cc1cccc(F)c1)C(=O)O; Phe(4-F) = N[C@@H](Cc1ccc(F)cc1)C(=O)O; dPhe(4-F) = N[C@H](Cc1ccc(F)cc1)C(=O)O; 2Nal = N[C@@H](Cc1ccc2ccccc2c1)C(=O)O; d2Nal = N[C@H](Cc1ccc2ccccc2c1)C(=O)O; 3Pal = N[C@@H](Cc1cccnc1)C(=O)O; Tle = CC(C)(C)[C@H](N)C(=O)O
# Tested on: rat pituitary cells
# Type: cell-based
# Conditions: 3 h
# Excerpt: Bioassay on the In Vitro Release of Growth Hormone
# (a) Rat Pituitary Cell Dispersion
# Pituitaries from adult Charles River CD male rats (Wilmington, Mass.) housed under controlled conditions were dispersed and cultured using aseptic technique by modification of previously described methods (Hoefer, M. T., et al., Mol. Cell. Endocrinol. 35:229 (1984); Ben-Jonathan, N., et al., Methods Enzymol. 103:249 (1983); and Heiman, M. L., et al., Endocrinology 116:410 (1985)). Pituitaries were removed from sacrificed rats, sectioned, and then placed into a siliconized, liquid scintillation vial containing 2 ml 0.2% trypsin (Worthington Biochemicals, Freehold, N.J.) in sterile-filtered Krebs-Ringer bicarbonate buffer supplemented with 1% bovine serum albumin, 14 mM glucose, modified Eagle medium (MEM) vitamin solution, and MEM amino acids (Gibco Laboratories, Grand Island, N.Y.) (KRBGA). All glassware was siliconized as described by Sayers, et al., Endocrinology 88:1063 (1971). The fragments were incubated in a water bath for 35 min at 37° C. with agitation. The vial contents then were poured into a scintillation vial containing 2 ml 0.1% DNase (Sigma Chemical Co., St. Louis, Mo.) in KRBGA and incubated for 2 min at 37° C. with agitation. After incubation, the tissue was decanted into a 15 ml centrifuge tube and allowed to settle. Medium was discarded, and pituitary sections were washed 3 times with 1 ml fresh-KRBGA. The cells were then dispersed in 2 ml 0.05% LBI (lima bean trypsin inhibitor, Worthington Biochemicals) by gently drawing the fragments into and expelling them out of a siliconized, fire polished Pasteur pipette. Dispersed cells were then filtered through a 630 μm diameter Nylon mesh (Tetko, Elmsford, N.Y.) into a fresh 15 ml centrifuge tube. An additional 2 ml of 0.05% LBI solution was used to rinse the first tube and was transferred to the second tube with filtering.
# The dispersed cells were then further diluted with approximately 15 ml sterile-filtered Dulbecco's modified Eagle medium (GIBCO), which was supplemented with 2.5% fetal calf serum (GIBCO), 3% horse serum (GIBCO), 10% fresh rat serum (stored on ice for no longer than 1 hr) from the pituitary donors, 1% MEM non-essential amino acids (GIBCO), and gentamycin (10 ng/ml; Sigma) and nystatin (10,000 U/ml; GIBCO). The cells were poured into a 50 ml round-bottomed glass extraction flask with a large diameter opening and then randomly plated at a density of approximately 200,000 cells per well (Co-star cluster 24; Rochester Scientific Co., Rochester, N.Y.). The plated cells were maintained in the above Dulbecco's medium in a humidified atmosphere of 95% air and 5% CO2 at 37° C. for 4-5 days.
# (c) Experimental Incubation and IC50 Determination
# In preparation for a hormone challenge, the cells were washed 3 times with medium 199 (GIBCO) to remove old medium and floating cells. Each treatment well contained a total volume of 1 ml medium 199 containing 1% BSA (fraction V; Sigma) with treatments as described below. Each antagonist candidate was tested using a single 24-well cell culture plate. Each treatment was performed in triplicate. Each plate contained 8 treatment groups: one 1 nM growth hormone releasing factor (GRF) (1-29)NH2-stimulated control group; one 1 nM somatostatin-inhibited control group in the presence of 1 nM GRF(1-29)NH2; and 6 doses of a given antagonist in the presence of both 1 nM SRIF and 1 nM GRF per plate. After 3 hrs at 37° C. in a air/carbon dioxide atmosphere (95/5%), the medium was removed and stored at −20° C. until radioimmunoassayed for growth hormone content. IC50's of each antagonist versus 1 nM SRIF were calculated using a computer program (SigmaPlot, Jandel Scientific, San Rafael, Calif.) with the maximum response constrained to the value of the 1 nM GRF(1-29)NH2-stimulated control.
row,IC50,SMILES
1,780 nM,"CC(C)[C@@H]1NC(=O)[C@H](CCCCN)NC(=O)[C@@H](Cc2c[nH]c3ccccc23)NC(=O)[C@H](Cc2ccc(O)cc2)NC(=O)[C@H](NC(=O)[C@H](N)Cc2ccc(-c3ccccc3)cc2)CSSC[C@@H](C(=O)N[C@@H](Cc2ccc3ccccc3c2)C(N)=O)NC1=O [Analog No. 37, H2-D-Bip-D-Cys-Tyr-D-Trp-Lys-Val-Cys-β-Nal-NH2] (H-[dBip][dC]Y[dW]KVC[2Nal]-NH2; disulfide 2-7)"
2,60 nM,"CC(=O)N[C@@H](Cc1ccc2ccccc2c1)C(=O)N[C@@H]1CSSC[C@@H](C(=O)N[C@@H](Cc2ccc3ccccc3c2)C(N)=O)NC(=O)[C@H](C(C)C)NC(=O)[C@H](CCCCN)NC(=O)[C@@H](Cc2c[nH]c3ccccc23)NC(=O)[C@H](Cc2ccc(O)cc2)NC1=O [Analog No. 5, (H)(CH3CO)-β-Nal-D-Cys-Tyr-D-Trp-Lys-Val-Cys-β-Nal-NH2] (Ac-[2Nal][dC]Y[dW]KVC[2Nal]-NH2; disulfide 2-7)"
3,12 nM,"CC[C@H](C)[C@@H]1NC(=O)[C@H](CCCCN)NC(=O)[C@@H](Cc2c[nH]c3ccccc23)NC(=O)[C@H](Cc2cccnc2)NC(=O)[C@H](NC(=O)[C@@H](N)Cc2ccc3ccccc3c2)CSSC[C@@H](C(=O)N[C@@H](Cc2ccc3ccccc3c2)C(N)=O)NC1=O [Analog No. 32, H2-β-Nal-D-Cys-Pal-D-Trp-Lys-Ile-Cys-β-Nal-NH4] (H-[2Nal][dC][3Pal][dW]KIC[2Nal]-NH2; disulfide 2-7)"
4,1500 nM,"NCCCC[C@@H]1NC(=O)[C@@H](Cc2c[nH]c3ccccc23)NC(=O)[C@H](Cc2cccnc2)NC(=O)[C@H](NC(=O)[C@@H](N)Cc2ccc3ccccc3c2)CSSC[C@@H](C(=O)N[C@@H](Cc2ccc3ccccc3c2)C(N)=O)NC(=O)CNC1=O [Analog No. 33, H2-β-Nal-D-Cys-Pal-D-Trp-Lys-Gly-Cys-β-Nal-NH2] (H-[2Nal][dC][3Pal][dW]KGC[2Nal]-NH2; disulfide 2-7)"
5,3030 nM,"CC(C)[C@H](NC(=O)[C@H](CCCCN)NC(=O)[C@@H](Cc1c[nH]c2ccccc12)NC(=O)[C@H](Cc1ccc(O)cc1)NC(=O)[C@@H](Cc1ccc(Cl)cc1)NC(=O)[C@@H](N)Cc1ccc2ccccc2c1)C(=O)N[C@@H](Cc1ccccc1)C(=O)N[C@H](C(N)=O)[C@@H](C)O [Analog No. 1, H2-β-Nal-D-Cpa-Tyr-D-Trp-Lys-Val-Phe-Thr-NH2] (H-[2Nal][dPhe(4-Cl)]Y[dW]KVFT-NH2)"
6,6.5 nM,"CC(C)[C@@H]1NC(=O)[C@H](CCCCN)NC(=O)[C@@H](Cc2c[nH]c3ccccc23)NC(=O)[C@H](Cc2cccnc2)NC(=O)[C@H](NC(=O)[C@@H](N)Cc2ccc(F)cc2)CSSC[C@@H](C(=O)N[C@@H](Cc2ccc3ccccc3c2)C(N)=O)NC1=O [Analog No. 30, H2-p-F-Phe-D-Cys-Pal-D-Trp-Lys-Val-Cys-β-Nal-NH2] (H-[Phe(4-F)][dC][3Pal][dW]KVC[2Nal]-NH2; disulfide 2-7)"
7,1.8 nM,"CC(C)(C)[C@@H]1NC(=O)[C@H](CCCCN)NC(=O)[C@@H](Cc2c[nH]c3ccccc23)NC(=O)[C@H](Cc2cccnc2)NC(=O)[C@H](NC(=O)[C@@H](N)Cc2ccc(Cl)cc2)CSSC[C@@H](C(=O)N[C@@H](Cc2ccc3ccccc3c2)C(N)=O)NC1=O [Analog No. 56, H2-p-Cl-Phe-D-Cys-Pal-D-Trp-Lys-Tle-Cys-β-Nal-NH2] (H-[Phe(4-Cl)][dC][3Pal][dW]K[Tle]C[2Nal]-NH2; disulfide 2-7)"
8,30 nM,"CC(C)[C@@H]1NC(=O)[C@H](CCCCN)NC(=O)[C@@H](Cc2c[nH]c3ccccc23)NC(=O)[C@H](Cc2cccnc2)NC(=O)[C@H](NC(=O)[C@@H](N)Cc2ccccc2)CSSC[C@@H](C(=O)N[C@@H](Cc2ccc3ccccc3c2)C(N)=O)NC1=O [Analog No. 4, H2-Phe-D-Cys-Pal-D-Trp-Lys-Val-Cys-β-Nal-NH2] (H-F[dC][3Pal][dW]KVC[2Nal]-NH2; disulfide 2-7)"

# More lines, now with the values behind:
row,SMILES,IC50
1,"CC(C)[C@@H]1NC(=O)[C@H](CCCCN)NC(=O)[C@@H](Cc2c[nH]c3ccccc23)NC(=O)[C@H](Cc2c[nH]cn2)NC(=O)[C@H](NC(=O)[C@@H](N)Cc2c(F)c(F)c(F)c(F)c2F)CSSC[C@@H](C(=O)N[C@@H](Cc2c(F)c(F)c(F)c(F)c2F)C(N)=O)NC1=O [Analog No. 11, H2—F5-Phe-D-Cys-His-D-Trp-Lys-Val-Cys-F5-Phe-NH2] (H-[Phe(F5)][dC]H[dW]KVC[Phe(F5)]-NH2; disulfide 2-7)",720 nM
2,"CC(C)[C@@H]1NC(=O)[C@H](CCCCN)NC(=O)[C@@H](Cc2c[nH]c3ccccc23)NC(=O)[C@H](Cc2cccnc2)NC(=O)[C@H](NC(=O)[C@@H](N)Cc2ccc([N+](=O)[O-])cc2)CSSC[C@@H](C(=O)N[C@@H](Cc2ccc(O)cc2)C(N)=O)NC1=O [Analog No. 39, H2-Npa-D-Cys-Pal-D-Trp-Lys-Val-Cys-Tyr-NH2] (H-[Phe(4-NO2)][dC][3Pal][dW]KVCY-NH2; disulfide 2-7)",34 nM
3,"CC(C)[C@@H]1NC(=O)[C@H](CCCCN)NC(=O)[C@@H](Cc2c[nH]c3ccccc23)NC(=O)[C@H](Cc2cccnc2)NC(=O)[C@H](NC(=O)[C@@H](N)Cc2cccc(F)c2)CSSC[C@@H](C(=O)N[C@@H](Cc2cccc(F)c2)C(N)=O)NC1=O [Analog No. 14, H2-m-F-Phe-D-Cys-Pal-D-Trp-Lys-Val-Cys-m-F-Phe-NH2] (H-[Phe(3-F)][dC][3Pal][dW]KVC[Phe(3-F)]-NH2; disulfide 2-7)",110 nM
4,"CC(C)[C@@H]1NC(=O)[C@H](CCCCN)NC(=O)[C@@H](Cc2c[nH]c3ccccc23)NC(=O)[C@H](Cc2cccnc2)NC(=O)[C@H](NC(=O)[C@H](N)Cc2ccc(F)cc2)CSSC[C@@H](C(=O)N[C@H](Cc2ccc(F)cc2)C(N)=O)NC1=O [Analog No. 27, H2-D-p-F-Phe-D-Cys-Pal-D-Trp-Lys-Val-Cys-D-p-F-Phe-NH2] (H-[dPhe(4-F)][dC][3Pal][dW]KVC[dPhe(4-F)]-NH2; disulfide 2-7)",41 nM
5,"CC(C)[C@@H]1NC(=O)[C@H](CCCCN)NC(=O)[C@@H](Cc2c[nH]c3ccccc23)NC(=O)[C@H](Cc2cccnc2)NC(=O)[C@H](NC(=O)[C@@H](N)Cc2c(F)c(F)c(F)c(F)c2F)CSSC[C@@H](C(=O)N[C@@H](Cc2c(F)c(F)c(F)c(F)c2F)C(N)=O)NC1=O [Analog No. 16, H2—F5-Phe-D-Cys-Pal-D-Trp-Lys-Val-Cys-F5-Phe-NH2] (H-[Phe(F5)][dC][3Pal][dW]KVC[Phe(F5)]-NH2; disulfide 2-7)",820 nM

# Same assay, conditions: cultured rat pituitary cells; 1 nM SRIF and 1 nM GRF(1-29)NH2; 3 hrs at 37° C.; growth hormone by radioimmunoassay; read-out: IC50 of antagonist versus 1 nM SRIF (growth hormone release)
row,SMILES,IC50
1,"CC(C)[C@@H]1NC(=O)[C@H](CCCCN)NC(=O)[C@@H](Cc2c[nH]c3ccccc23)NC(=O)[C@H](Cc2ccc(O)cc2)NC(=O)[C@H](NC(=O)[C@@H](N)Cc2c[nH]c3ccccc23)CSSC[C@@H](C(=O)N[C@H](Cc2ccc3ccccc3c2)C(N)=O)NC1=O [Analog No. 24, H2-Trp-D-Cys-Tyr-D-Trp-Lys-Val-Cys-D-β-Nal-NH2] (H-W[dC]Y[dW]KVC[d2Nal]-NH2; disulfide 2-7)",68 nM
2,"CC(C)[C@@H]1NC(=O)[C@H](CCCCN)NC(=O)[C@@H](Cc2c[nH]c3ccccc23)NC(=O)[C@H](Cc2ccc(O)cc2)NC(=O)[C@H](NC(=O)[C@H](N)Cc2ccc3ccccc3c2)CSSC[C@@H](C(=O)N[C@H](Cc2ccc3ccccc3c2)C(N)=O)NC1=O [Analog No. 26, H2-D-β-Nal-D-Cys-Tyr-D-Trp-Lys-Val-Cys-D-β-Nal-NH2] (H-[d2Nal][dC]Y[dW]KVC[d2Nal]-NH2; disulfide 2-7)",380 nM
3,"CC(C)[C@@H]1NC(=O)[C@H](CCCCN)NC(=O)[C@@H](Cc2c[nH]c3ccccc23)NC(=O)[C@H](Cc2ccc(O)cc2)NC(=O)[C@H](NC(=O)[C@H](N)Cc2ccc3ccccc3c2)CSSC[C@@H](C(=O)N[C@@H](Cc2ccc3ccccc3c2)C(N)=O)NC1=O [Analog No. 9, H2-D-β-Nal-D-Cys-Tyr-D-Trp-Lys-Val-Cys-β-Nal-NH2] (H-[d2Nal][dC]Y[dW]KVC[2Nal]-NH2; disulfide 2-7)",1360 nM

# Source: patent US9133262B2, “Somatostatin antagonists” (Ipsen Pharma S.A.S., priority 1996, dated 2015)
